Reference: PMC8113213, “Physiologically based kinetic modelling based prediction of in vivo rat and human acetylcholinesterase (AChE) inhibition upon exposure to diazinon” (Archives of Toxicology, 2021)
Where two headings read alike, the source gives them in different places.

What was measured:
[1] = rat; ref JMPR 2016; cited from earlier work
CYP450 [2] = test: in vitro; format: in vitro ADME, human; conditions: for Km: human
Experimental: (§1) The in vitro incubations for investigating CYP450-mediated biotransformation of DZN were performed using rat and human liver microsomes based on the method described by Sams et al. ([2004]) and Smith et al. ([2011]) with some modifications. Preliminary studies were carried out to optimize both incubation time and microsomal protein concentration, to define conditions at which metabolism was linear with respect to time and the amount of microsomal protein (data not shown) to be used for further kinetic studies. The final incubations contained 50 mM Tris–HCl (pH 7.4), 5 mM MgCl2, 1 mM EDTA (as an A-esterase PON1 inhibitor) (Bizoń and Milnerowicz [2018]), 50 µM iso-OMPA (as a B-esterases inhibitor) (Lane et al. [2006]), 1 mM NADPH, and DZN at final concentrations of 1, 2.5, 5, 10, 25, 50, 100 and 250 µM (added from 100 times concentrated stock solutions in methanol). […] Addition of esterase inhibitors EDTA and iso-OMPA has been commonly applied when studying CYP450-mediated conversion of organophosphate (OP) pesticides in liver microsomal incubations for determining kinetic parameters for their CYP450-mediated pathways (Buratti et al. [2005]; Dadson et al. [2013]; Ellison et al. [2012]; Foxenberg et al. [2007]; Poet et al. [2003]; Smith et al. [2011]). Based on previous studies, CYP450-mediated activities are not adversely affected by the addition of these inhibitors (1 mM EDTA and 50 µM iso-OMPA) to the microsomal incubations (Buratti et al. [2003]; Rasmussen [2012]). After 1 min preincubation in a 37 °C water bath, 2.5 µl of human or rat liver microsomes (final concentration 0.25 mg microsomal protein/ml) were added to initiate the reaction. The total incubation mixture was 200 µl. Control incubations were carried out by replacing NADPH with buffer. The reaction was terminated after 2.5 min by adding 200 µl ice-cold ACN. After the incubation, samples were centrifuged at 16000 g (4℃) for 5 min, and supernatants of rat samples were further diluted 2 × in a mixture of ACN and 50 mM Tris–HCl (pH 7.4) (ratio 1:1, v/v). At the end, both diluted rat sample supernatants and undiluted human sample supernatants were analysed by LC–MS/MS for quantification of metabolite formation.
The chromatographic separations were conducted on a Kinetex® 1.7 µm Phenyl-Hexyl 100 Å LC column (100 × 2.1 mm). The injection volume was 1 µl at a flow rate of 0.3 ml/min. The temperature of the column was kept at 40℃. The mobile phase A consisted of ultrapure water with 0.1% (v/v) formic acid, and mobile phase B consisted of acetonitrile (ACN) with 0.1% (v/v) formic acid. […] The instrument was used in positive mode with multiple reaction monitoring (MRM). The optimized acquisition parameters for DZN, DZO and the metabolite IMHP are listed in Supplementary data I. […]

CYP450 [3] = test: in vitro; format: in vitro ADME, rat; conditions: for Km: rat
Experimental: as §1
The chromatographic separations were conducted on a Kinetex® 1.7 µm Phenyl-Hexyl 100 Å LC column (100 × 2.1 mm). The injection volume was 1 µl at a flow rate of 0.3 ml/min. The temperature of the column was kept at 40℃. The mobile phase A consisted of ultrapure water with 0.1% (v/v) formic acid, and mobile phase B consisted of acetonitrile (ACN) with 0.1% (v/v) formic acid. […] The instrument was used in positive mode with multiple reaction monitoring (MRM). The optimized acquisition parameters for DZN, DZO and the metabolite IMHP are listed in Supplementary data I.
The calculation was done using GraphPad Prism 5 for Windows, version 5.04 (GraphPad software, San Diego California USA).

brain and RBC AChE = conditions: cited from earlier work
RBC AChE = conditions: ref USEPA 2016, cited from earlier work; for Reported BMDL10 from EPA (pups): RBC AChE inhibition in female rat pups (PND11)
CYP450 [4] = conditions: ref Kappers et al. 2001; cited from earlier work
natural human RBC AChE = conditions: ref Fakhri-Bafghi et al. 2016; cited from earlier work
brain AChE = conditions: cited from earlier work; for inhibition of brain AChE: ref Padilla et al. 2004
[5] = rat, ref Poet et al. 2004, cited from earlier work
[6] = target: T1, recombinant human AChE (rhAChE) (Homo sapiens, UniProt P22303); test: biochemical
T1 construct: purchased Sigma-Aldrich Co
Experimental: However, since recombinant rat AChE was not commercially available, extracted rat RBC AChE was used. […] The concentration of DTNB was calculated based on the concentration ratio (ATC/DTNB) of 2 (Stern et al. [2014]). […] To initiate the inhibition reaction, 1 µl rhAChE or rat AChE (final concentration 0.6 mU/ml) was added to the incubation. The total incubation volume was 50 µl. After 15 min incubation at 37℃, 150 µl reaction reagents (mixture of ATC at a final concentration of 150 µM and DTNB at a final concentration of 75 µM) were added into each well. The final total volume of each well was 200 µl. Subsequently, the 96-well plate was measured continuously for 10 min at absorbance 412 nm at 37℃ to quantify the remaining AChE activity.
The rhAChE and rat AChE activity were expressed as the remaining AChE activity relative to solvent control (100% activity) and positive control (0% activity) based on Eq. (2):2 AChEactivity\%=A412t10-t0testcompound-A412t10-t0positivecontrol/A412t10-t0solventcontrol-A412t10-t0positivecontrol×100\% , where the A412(t10 − t0)test compound is the change in the absorbance at A412 nm between 0 and 10 min for the test compound, the A412(t10 − t0)positive control is the change in the absorbance at A412 nm between 0 and 10 min for the CPO sample, and the A412(t10 − t0)solvent control is the change in the absorbance at A412nm between 0 and 10 min for the 0.2% ethanol sample.

[7] = rat versus human liver microsomes

T1 sequence (P22303 32-614): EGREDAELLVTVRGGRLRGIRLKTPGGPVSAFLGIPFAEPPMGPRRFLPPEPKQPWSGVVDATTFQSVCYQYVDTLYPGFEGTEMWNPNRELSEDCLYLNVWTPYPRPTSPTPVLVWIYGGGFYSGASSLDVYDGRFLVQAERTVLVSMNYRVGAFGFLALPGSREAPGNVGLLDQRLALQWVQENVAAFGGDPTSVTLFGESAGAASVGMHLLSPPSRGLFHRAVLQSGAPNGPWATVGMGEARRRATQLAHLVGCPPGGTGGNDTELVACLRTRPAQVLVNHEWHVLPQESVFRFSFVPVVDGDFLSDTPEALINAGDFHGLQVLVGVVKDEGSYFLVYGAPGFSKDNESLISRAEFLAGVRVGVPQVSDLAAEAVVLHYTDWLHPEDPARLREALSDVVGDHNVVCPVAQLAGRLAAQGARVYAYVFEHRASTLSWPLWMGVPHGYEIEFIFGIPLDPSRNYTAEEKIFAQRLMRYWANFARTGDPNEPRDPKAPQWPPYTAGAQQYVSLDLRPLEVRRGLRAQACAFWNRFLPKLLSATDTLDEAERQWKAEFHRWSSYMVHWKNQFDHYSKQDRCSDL

For `CCOP(=S)(OCC)Oc1cc(C)nc(C(C)C)n1` [DZN, O,O-diethyl O-2-isopropyl-6-methylpyrimidin-4-yl phosphorothioate], the “toxic dose level reported” value [1] is listed as 300 mg/kg bw, the “Vmax DZN to DZO” value (CYP450 [2]; human liver microsomes) is listed as 0.187 nmol/min/mg microsomal protein and the “Vmax DZN to IMHP” value (CYP450 [2]; human liver microsomes) is listed as 0.665 nmol/min/mg microsomal protein. For the same compound, the Km (CYP450 [2]; pH 7.4, Km DZN to DZO, human liver microsomes) was 59.6 µM, the Km (CYP450 [2]; pH 7.4, human liver microsomes, read-out: Km DZN to IMHP) was 16.3 µM and the “Vmax DZN to DZO” value (CYP450 [3]; rat liver microsomes) was 0.288 nmol/min/mg microsomal protein. The “Vmax DZN to IMHP” value (CYP450 [3]; rat liver microsomes) was 1.098 nmol/min/mg microsomal protein, the “CYP450-mediated detoxification, more efficient in rat compared to human” value (CYP450 [3]; [7]) was 15 fold and the “lower Km for CYP450-mediated bioactivation in rat than in human” value (CYP450 [3]; [7]) was 12.6 fold. The “lower Km for CYP450-mediated detoxification in rat than in human” value (CYP450 [3]; [7]) was 9.3 fold, the “unscaled catalytic efficiency of CYP450-mediated bioactivation, higher in rat than human” value (CYP450 [3]; [7]) was 20 fold and the Km (CYP450 [3]; pH 7.4, Km DZN to DZO, rat liver microsomes) was 4.75 µM. The Km (CYP450 [3]; pH 7.4, rat liver microsomes, read-out: Km DZN to IMHP) was 1.76 µM, the “overall NOAEL from three rat studies” value (brain and RBC AChE; EFSA, ref EFSA 2006) was 2.5 mg/kg bw and the “LOAEL, inhibition of brain and RBC AChE activity in female rat” value (brain and RBC AChE; JMPR, ref JMPR 2016) was 25 mg/kg bw. For the same compound, the “NOAEL, acute (neuro)toxicity study in rats” value (brain and RBC AChE; JMPR, ref JMPR 2016) was 2.5 mg/kg bw, the “Reported NOAEL from EFSA and JMPR (adult rat)” value (brain and RBC AChE; ref EFSA 2006, JMPR 2016) was 2.5 mg/kg bw and the “Reported BMDL10 from EPA (pups)” value (RBC AChE) was 3 mg/kg bw. For the same compound, the “Reported BMDL10 from EPA (pups)” value (RBC AChE; listed as Diazinon) was 3.0 mg/kg bw, the “BMDL10 for inhibition of RBC AChE” value (RBC AChE; male adult rats, oral DZN) was 4.804 mg/kg bw/day and the “Reported BMDL10 from EPA (adult rat)” value (RBC AChE) was 4.8 mg/kg bw. The “difference in DZO formation from DZN between 15 human liver samples” value (CYP450 [4]) was 6- to 59 fold, the IC50 (natural human RBC AChE) was 24.4 µM and the “inhibition of brain AChE” value (brain AChE; adult rats, oral dose of 75 mg/kg bw) was 38%. For the same compound, the “BMDL10 for inhibition of brain AChE” value (brain AChE; male adult rats, oral DZN, ref USEPA 2016) was 12.175 mg/kg bw/day, the “inhibition of brain AChE” value (brain AChE; pups at postnatal day 17, oral dose of 75 mg/kg bw) was 75% and the “fractional absorption (fa)” value ([5]; oral) was 0.8. The “first-order rate constant for absorption from the intestine into the liver (KaI)” value [5] was 0.59 h⁻¹, the “first-order rate constant for absorption from the stomach into the liver (KaS)” value [5] was 0.1 h⁻¹ and the “first-order rate constant for transfer from the stomach into the intestine (KsI)” value [5] was 0.48 h⁻¹. For the same compound, the “lower AChE inhibitory potency of DZN than of DZO” value [6] was “around 300 fold” and the IC50 ([6]; rhAChE, 15 min incubation at 37℃, read-out: IC50 for inhibition of AChE activity) was 14.3 µM.
